From US20150141380A1, “INHIBITORS OF ERK FOR DEVELOPMENTAL DISORDERS OF NEURONAL CONNECTIVITY” (CASE WESTERN RESERVE UNIVERSITY, priority 2010, published 2015)
“Also recorded” adds a separate entry of the source.

How the values were obtained:
FMRI knockout mice = assay: audiogenic seizure test in FMRI knockout mice (Example 2); type: in vivo
Experimental: Male FMRI knockout mice were bred at PsychoGenies and tested at 21 days old. All mice were acclimated to the environment, examined, handled, and weighed prior to initiation of the study to assure adequate health and suitability and to minimize non-specific stress associated with manipulation. During the course of the study, 12/12 light/dark cycles were maintained. The room temperature was maintained between 20 and 23° C. with a relative humidity maintained around 50%. Chow and water were provided ad libitum for the duration of the study. Each mouse was randomly assigned across treatment groups. The testing was performed during the animals' light cycle phase
The following compounds were used.
Mice were individually placed in a Plexiglas chamber and allowed to explore for 15 sec following which they were exposed to a 125 dB tone for 2 minutes, followed by 1 minute of no sound, and then a further 2 minute tone. The mice were scored based on their response, latency, and seizure intensity:
Data were analyzed by analysis of variance (ANOVA) followed by post-hoc comparisons with Fisher Tests when appropriate. An effect was considered significant if p<0.05. Data are presented as the mean±standard error of the mean.

fmr1 knockout mice = assay: audiogenic seizures in the fmr1 knockout transgenic mouse model of Fragile X syndrome (Example 1); type: in vivo
Experimental: Male fmr1 knockout mice were bred and tested at 21 days old. All mice were acclimated to the environment, examined, handled, and weighed prior to initiation of the study to assure adequate health and suitability and to minimize non-specific stress associated with manipulation. During the course of the study, 12/12 light/dark cycles were maintained. The room temperature was maintained between 20 and 23° C. with a relative humidity maintained around 50%. Chow and water were provided ad libitum for the duration of the study. Each mouse was randomly assigned across treatment groups. The testing was performed during the animals' light cycle phase. SL327 (Sigma Aldrich, 400 mg/kg) was dissolved in 5% Tween80 and saline and administered i.p. at a dose volume of 10 ml/kg 30 min prior to test. Mice were individually placed in a Plexiglas chamber and allowed to explore for 15 sec following which they were exposed to a 125 dB tone for 2 minutes, followed by 1 minute of no sound, and then a further 2 minute tone. The mice were scored based on their response, latency, and seizure intensity: […]

[1] = MPEP 30 mg/kg i.p., 30 min prior to testing
[2] = perillyl alcohol 25 mg/kg i.p., 60 min prior to testing
[3] = perillyl alcohol 50 mg/kg i.p., 60 min prior to testing

Which results are given for `Cc1cccc(C#Cc2ccccc2)n1.Cl` [MPEP]?
respiratory distress during testing (FMRI knockout mice; MPEP 30 mg/kg i.p.): no respiratory distress; latency to onset of seizure compared to respective vehicle (FMRI knockout mice; [1]): significantly delayed the onset; also recorded: increased the latency to seizure; latency to respiratory arrest compared to respective vehicle (FMRI knockout mice; [1]): significantly delayed the onset; also recorded: significantly prolonged the latency to respiratory arrest; mean seizure score compared to vehicle (FMRI knockout mice; [1]): attenuated overall seizure score; also recorded: significantly decreased seizure score; latency to respiratory arrest (FMRI knockout mice; MPEP 30 mg/kg i.p., 240 sec given to animals with no response): 240 s; clinical signs or toxicity during pretreatment or testing (FMRI knockout mice; i.p., MPEP HCI 30 mg/kg, perillyl alcohol 25 and 50 mg/kg): No clinical signs or toxicity were observed

What does the source list for `N#C/C(=C(/N)Sc1ccc(N)cc1)c1ccccc1C(F)(F)F` [SL327, (2Z)-3-amino-3-[(4-aminophenyl)sulfanyl]-2-[2-(trifluoromethyl)phenyl]prop-2-enenitrile]?
mean seizure score compared to vehicle (fmr1 knockout mice; SL327 400 mg/kg i.p.): significantly lower seizure score; survival (fmr1 knockout mice; SL327 400 mg/kg i.p.): All mice receiving SL327 survived; survival rate following testing (fmr1 knockout mice; SL327 400 mg/kg i.p.): 100%; audiogenic seizure activity (fmr1 knockout mice; SL327 400 mg/kg i.p. 30 min prior to test, male fmr1 knockout mice, 21 days old, vs Tween80 vehicle, 400 mg/kg): absence of any audiogenic seizure activity; also recorded: completely inhibits all seizure activity; also recorded: seizure activity was completely prevented; latency to seizure onset (fmr1 knockout mice; SL327 400 mg/kg i.p., 240 sec = maximum total time of audiogenic stimulation, given to animals with no response): > 240 s; seizure score (fmr1 knockout mice; SL327 400 mg/kg i.p., scale 0 (no response) to 5 (respiratory arrest)): 0

With `C=C(C)[C@@H]1CC=C(CO)CC1` [perillyl alcohol, [(4S)-4-(prop-1-en-2-yl)cyclohex-1-en-1-yl]methanol] as the compound, how does the “latency to onset of seizure compared to respective vehicle” value (FMRI knockout mice; [2]) read?
The value was “significantly delayed the onset; also recorded: increased the latency to seizure”.

What about the “latency to respiratory arrest compared to respective vehicle” value (FMRI knockout mice; [2]) of the same compound?
Its value is “significantly delayed the onset; also recorded: significantly prolonged the latency to respiratory arrest”.

And the “mean seizure score compared to vehicle” value (FMRI knockout mice; [2])?
The value was “attenuated overall seizure score; also recorded: significantly decreased seizure score”.

What about the “latency to onset of seizure compared to respective vehicle” value (FMRI knockout mice; [3]) of the same compound?
Its value is “significantly delayed the onset; also recorded: increased the latency to seizure”.

And the “latency to respiratory arrest compared to respective vehicle” value (FMRI knockout mice; [3])?
Its value is “significantly delayed the onset; also recorded: significantly prolonged the latency to respiratory arrest”.

And the “mean seizure score compared to vehicle” value (FMRI knockout mice; [3])?
The value was “attenuated overall seizure score; also recorded: significantly decreased seizure score”.
